PubChem BioAssay (NCI)
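Tested at 5 concentrations; 48 h exposure; 96-well plates; endpoints linearly interpolated, else capped at highest concentration. GI50 marks 50% less growth. TGI: total growth inhibition.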

What follows are compounds tested on BT-549 breast (assay: NCI tumour cell line growth inhibition, 48 h).
In the case of `Nc1nccc(-c2c(-c3ccc(F)cc3)ncn2CCCN2CCOCC2)n1`, the GI50 is reported as > 25 µM and the TGI is reported as > 25 µM. For `Cc1cc(C)cc(Nc2cc(C)nc3nc(C(F)(F)F)nn23)c1`, the GI50 was 39.6 µM and the TGI was > 100 µM.

Each compound was assayed on KM12 colon (assay: NCI tumour cell line growth inhibition, 48 h).
With `O=C(c1ccccc1)c1c2ccccn2c2cccc[n+]12` the TGI was > 100 µM. For `COc1cccc(NCc2nnc(Nc3ccc(Cl)cc3)c3ccccc23)c1`, the GI50 was 0.131 µM and the TGI was 6.52 µM. In the case of `Nc1nccc(-c2c(-c3ccc(F)cc3)ncn2CCCN2CCOCC2)n1`, the GI50 is reported as > 25 µM and the TGI is reported as > 25 µM. For `Cc1cc(C)cc(Nc2cc(C)nc3nc(C(F)(F)F)nn23)c1`, the GI50 was > 100 µM and the TGI was > 100 µM.

The compounds below were run on HCT-15 colon (assay: NCI tumour cell line growth inhibition, 48 h).
With `O=C(c1ccccc1)c1c2ccccn2c2cccc[n+]12` the TGI was > 100 µM. Compound `COc1cccc(NCc2nnc(Nc3ccc(Cl)cc3)c3ccccc23)c1` has a GI50 of 1.78 µM and a TGI of 7.56 µM. In the case of `Nc1nccc(-c2c(-c3ccc(F)cc3)ncn2CCCN2CCOCC2)n1`, the GI50 is reported as > 25 µM and the TGI is reported as > 25 µM. For `Cc1cc(C)cc(Nc2cc(C)nc3nc(C(F)(F)F)nn23)c1`, the GI50 was > 100 µM and the TGI was > 100 µM.

What follows are compounds tested on M14 melanoma (assay: NCI tumour cell line growth inhibition, 48 h).
`O=C(c1ccccc1)c1c2ccccn2c2cccc[n+]12` was tested, and the TGI was > 100 µM. Work on `COc1cccc(NCc2nnc(Nc3ccc(Cl)cc3)c3ccccc23)c1` yielded a GI50 of 0.85 µM and a TGI of 4.69 µM. For `Nc1nccc(-c2c(-c3ccc(F)cc3)ncn2CCCN2CCOCC2)n1`, the GI50 was > 25 µM and the TGI was > 25 µM. `Cc1cc(C)cc(Nc2cc(C)nc3nc(C(F)(F)F)nn23)c1` was tested, and the GI50 was > 100 µM and the TGI was > 100 µM.

The compounds below were run on HL-60(TB) leukemia (assay: NCI tumour cell line growth inhibition, 48 h).
`O=C(c1ccccc1)c1c2ccccn2c2cccc[n+]12` was tested, and the TGI was > 100 µM. In the case of `COc1cccc(NCc2nnc(Nc3ccc(Cl)cc3)c3ccccc23)c1`, the GI50 is reported as 3.78 µM and the TGI is reported as 13.1 µM. `Nc1nccc(-c2c(-c3ccc(F)cc3)ncn2CCCN2CCOCC2)n1` was tested, and the GI50 was > 25 µM and the TGI was > 25 µM. With `Cc1cc(C)cc(Nc2cc(C)nc3nc(C(F)(F)F)nn23)c1` the GI50 was > 100 µM and the TGI was > 100 µM.

These compounds were tested on UACC-62 melanoma (assay: NCI tumour cell line growth inhibition, 48 h).
`O=C(c1ccccc1)c1c2ccccn2c2cccc[n+]12` was tested, and the TGI was > 100 µM. Compound `COc1cccc(NCc2nnc(Nc3ccc(Cl)cc3)c3ccccc23)c1` has a GI50 of 1 µM and a TGI of 5.76 µM. In the case of `Nc1nccc(-c2c(-c3ccc(F)cc3)ncn2CCCN2CCOCC2)n1`, the GI50 is reported as > 25 µM and the TGI is reported as > 25 µM. `Cc1cc(C)cc(Nc2cc(C)nc3nc(C(F)(F)F)nn23)c1` was tested, and the GI50 was > 100 µM and the TGI was > 100 µM.

What follows are compounds tested on CAKI-1 renal (assay: NCI tumour cell line growth inhibition, 48 h).
For `O=C(c1ccccc1)c1c2ccccn2c2cccc[n+]12`, the TGI was > 100 µM. With `Nc1nccc(-c2c(-c3ccc(F)cc3)ncn2CCCN2CCOCC2)n1` the GI50 was > 25 µM and the TGI was > 25 µM. With `Cc1cc(C)cc(Nc2cc(C)nc3nc(C(F)(F)F)nn23)c1` the GI50 was > 100 µM and the TGI was > 100 µM.

The compounds below were run on ACHN renal (assay: NCI tumour cell line growth inhibition, 48 h).
Work on `COc1cccc(NCc2nnc(Nc3ccc(Cl)cc3)c3ccccc23)c1` yielded a GI50 of 1.56 µM and a TGI of 24.4 µM. With `Nc1nccc(-c2c(-c3ccc(F)cc3)ncn2CCCN2CCOCC2)n1` the GI50 was 19.4 µM and the TGI was > 25 µM. With `Cc1cc(C)cc(Nc2cc(C)nc3nc(C(F)(F)F)nn23)c1` the GI50 was 58.7 µM and the TGI was > 100 µM.

These compounds were tested on PC-3 prostate (assay: NCI tumour cell line growth inhibition, 48 h).
In the case of `O=C(c1ccccc1)c1c2ccccn2c2cccc[n+]12`, the TGI is reported as > 100 µM. With `COc1cccc(NCc2nnc(Nc3ccc(Cl)cc3)c3ccccc23)c1` the GI50 was 1.19 µM and the TGI was 9.33 µM. `Nc1nccc(-c2c(-c3ccc(F)cc3)ncn2CCCN2CCOCC2)n1` was tested, and the GI50 was > 25 µM and the TGI was > 25 µM. With `Cc1cc(C)cc(Nc2cc(C)nc3nc(C(F)(F)F)nn23)c1` the GI50 was > 100 µM and the TGI was > 100 µM.

What follows are compounds tested on OVCAR-8 ovarian (assay: NCI tumour cell line growth inhibition, 48 h).
`O=C(c1ccccc1)c1c2ccccn2c2cccc[n+]12` was tested, and the TGI was > 100 µM. Work on `COc1cccc(NCc2nnc(Nc3ccc(Cl)cc3)c3ccccc23)c1` yielded a GI50 of 3.61 µM and a TGI of 14.7 µM. For `Nc1nccc(-c2c(-c3ccc(F)cc3)ncn2CCCN2CCOCC2)n1`, the GI50 was > 25 µM and the TGI was > 25 µM. With `Cc1cc(C)cc(Nc2cc(C)nc3nc(C(F)(F)F)nn23)c1` the GI50 was > 100 µM and the TGI was > 100 µM.

These compounds were tested on U251 CNS (assay: NCI tumour cell line growth inhibition, 48 h).
For `O=C(c1ccccc1)c1c2ccccn2c2cccc[n+]12`, the TGI was > 100 µM. With `COc1cccc(NCc2nnc(Nc3ccc(Cl)cc3)c3ccccc23)c1` the GI50 was 2.78 µM and the TGI was 6.54 µM. With `Nc1nccc(-c2c(-c3ccc(F)cc3)ncn2CCCN2CCOCC2)n1` the GI50 was > 25 µM and the TGI was > 25 µM. With `Cc1cc(C)cc(Nc2cc(C)nc3nc(C(F)(F)F)nn23)c1` the GI50 was > 100 µM and the TGI was > 100 µM.

These compounds were tested on HCT-116 colon (assay: NCI tumour cell line growth inhibition, 48 h).
In the case of `O=C(c1ccccc1)c1c2ccccn2c2cccc[n+]12`, the TGI is reported as > 100 µM. `COc1cccc(NCc2nnc(Nc3ccc(Cl)cc3)c3ccccc23)c1` gave a GI50 of 0.881 µM and a TGI of 4.2 µM. `Nc1nccc(-c2c(-c3ccc(F)cc3)ncn2CCCN2CCOCC2)n1` was tested, and the GI50 was > 25 µM and the TGI was > 25 µM. With `Cc1cc(C)cc(Nc2cc(C)nc3nc(C(F)(F)F)nn23)c1` the GI50 was 85 µM and the TGI was > 100 µM.

These compounds were tested on UACC-257 melanoma (assay: NCI tumour cell line growth inhibition, 48 h).
With `O=C(c1ccccc1)c1c2ccccn2c2cccc[n+]12` the TGI was > 100 µM. Compound `COc1cccc(NCc2nnc(Nc3ccc(Cl)cc3)c3ccccc23)c1` has a GI50 of 2.04 µM and a TGI of 5.28 µM. `Nc1nccc(-c2c(-c3ccc(F)cc3)ncn2CCCN2CCOCC2)n1` was tested, and the GI50 was > 25 µM and the TGI was > 25 µM.

Each compound was assayed on SK-MEL-2 melanoma (assay: NCI tumour cell line growth inhibition, 48 h).
With `O=C(c1ccccc1)c1c2ccccn2c2cccc[n+]12` the TGI was > 100 µM. `COc1cccc(NCc2nnc(Nc3ccc(Cl)cc3)c3ccccc23)c1` was tested, and the GI50 was 0.708 µM and the TGI was 3.98 µM. With `Nc1nccc(-c2c(-c3ccc(F)cc3)ncn2CCCN2CCOCC2)n1` the GI50 was > 25 µM and the TGI was > 25 µM. `Cc1cc(C)cc(Nc2cc(C)nc3nc(C(F)(F)F)nn23)c1` was tested, and the GI50 was > 100 µM and the TGI was > 100 µM.

What follows are compounds tested on RPMI-8226 leukemia (assay: NCI tumour cell line growth inhibition, 48 h).
For `O=C(c1ccccc1)c1c2ccccn2c2cccc[n+]12`, the TGI was > 100 µM. `COc1cccc(NCc2nnc(Nc3ccc(Cl)cc3)c3ccccc23)c1` was tested, and the GI50 was 1.48 µM and the TGI was 7.51 µM. With `Nc1nccc(-c2c(-c3ccc(F)cc3)ncn2CCCN2CCOCC2)n1` the GI50 was > 25 µM and the TGI was > 25 µM.
